Test results published in US7704978B2, “Methods for treating neuropsychiatric disorders” (The General Hospital Corporation, priority 1998, dated 2010).
Marks after values point to notes of the source that are not given here.

Tests used:
Schizophrenia Patients [1] = assay: Double-blind, placebo-controlled 6-week treatment of schizophrenia patients: clinical symptoms and cognition (SANS, PANSS, CGI, Wisconsin Card Sort Test); format: in vivo, human; conditions: for cognition, PANSS-cognitive subscale and Wisconsin Card Sort Test: 6 weeks of treatment; for WCST (Wisconsin Card Sort Test), change: initiation versus end of the 6-week study; for WCST (Wisconsin Card Sort Test), change / Cognitive symptoms (PANSS-cognitive subscale), change / Positive Symptoms (PANSS-positive subscale), change / reduction of the negative symptoms (on the SANS scale) / reduction of the positive symptoms (on the PANSS-positive subscale) / CGI, score after treatment: D-serine 30, D-alanine 60-100, N-methylglycine 30 mg/kg/day; for Negative Symptoms (SANS), change / Cognitive symptoms (PANSS-cognitive subscale), change / Positive Symptoms (PANSS-positive subscale), change / reduction of the negative symptoms (on the SANS scale) / reduction of the positive symptoms (on the PANSS-positive subscale): once a day by mouth for 6 weeks; for Negative Symptoms (SANS), change: D-serine 30 mg/kg/day, D-alanine 60-100 mg/kg/day, N-methylglycine 30 mg/kg/day, added to stable antipsychotic; for CGI, score after treatment: value after the arrow: after 6 weeks, once a day by mouth; for CGI, baseline score: value before the arrow: baseline of the treatment group
Source text: (§1) This study employed 37 patients who were diagnosed as having schizophrenia. All patients fulfilled the DSM-IV diagnosis of schizophrenia (APA, 1994, Diagnostic and Statistical Manual of Mental Disorders, Fourth Edition, Washington, D.C.). All of the patients also fulfilled the criteria of primary deficit syndrome, with a SANS score of more than 40 (Kirkpatrick et al., 1989, Psychiatry Research 30:119-123; Andreasen, 1983, Scales for the Assessment of Negative Symptoms (SANS), Iowa City, Iowa). All of the patients were poorly responsive to treatment by other antipsychotic drugs, and had been kept on a stable dose of an antipsychotic drug for at least 3 months prior to enrollment in this study.
(§2) Several scales were used to assess the severity of the disorder in each patient. At the beginning of the study (i.e., the baseline), the PANSS, SANS, and […] were used. Each scale also was completed at the end of each 2-week period throughout the study. These assessments were performed by a psychiatrist who was blind to the treatment assignment. The Wisconsin Card Sort Test was used to provide a cognitive rating of the patients; in general, schizophrenic patients perform poorly on this test. The Wisconsin Card Sort Test was administered only at the initiation of the study and at the end of the 6-week study. To measure side effects, the Simpson-Angus Scale was used to measure extrapyramidal symptoms (EPS; Simpson et al., 1970, Acta Psychiatrica Scandinavia Suppl. 212:11-19). The Abnormal Involuntary Movement Scale (AIMS) was used to measure dyskinesia (Simpson et al., 1970, Acta Psychiatrica Scandinavia Suppl. 212:11-19). The Barnes Scale was used to measure akathesia (Barnes, 1989, Brit. J. Psychiatry 154:672-676). The side effects of D-serine, D-alanine, and N-methylglycine treatments were assessed biweekly according to the UKU side effects rating scale (Scandinavian Society of Psychopharmacology Committee of Clinical Investigation: The UKU side effect rating scale: scale for the registration of unwanted effects of psychotropics. Acta. Psychiatr. Scand. 1987; Suppl. 334:81-94).
(§3) Using double-blind conditions, the patients were randomly assigned to receive placebo (fruit juice), D-serine (30 mg/kg/day), D-alanine (60-100 mg/kg/day), or N-methylglycine (30 mg/kg/day) once a day by mouth for a period of 6 weeks. As indicated by the results shown in Table 1, treatment with D-serine, D-alanine, or N-methylglycine improved the schizophrenic symptoms and cognitive deficit of the patients. […] These reductions in the negative and positive symptoms represented clinically significant improvement.

Schizophrenia Patients [2] = conditions: human, in vivo; for AIMS (dyskinesia), score after treatment / Barnes Scale (akathesia), score after treatment / EPS (Simpson-Angus Scale), score after treatment: 6 weeks
Source text: as §1, §2, §3

Row | AIMS (dyskinesia), baseline score (Schizophrenia Patients [2]) | Barnes Scale (akathesia), baseline score (Schizophrenia Patients [2]) | EPS (Simpson-Angus Scale), baseline score (Schizophrenia Patients [2]) | AIMS (dyskinesia), score after treatment (Schizophrenia Patients [2]) | Barnes Scale (akathesia), score after treatment (Schizophrenia Patients [2]) | EPS (Simpson-Angus Scale), score after treatment (Schizophrenia Patients [2]) | Compound | cognition, PANSS-cognitive subscale and Wisconsin Card Sort Test (Schizophrenia Patients [1]) | WCST (Wisconsin Card Sort Test), change (Schizophrenia Patients [1]) | Negative Symptoms (SANS), change (Schizophrenia Patients [1]) [%*] | Cognitive symptoms (PANSS-cognitive subscale), change (Schizophrenia Patients [1]) [%*] | Positive Symptoms (PANSS-positive subscale), change (Schizophrenia Patients [1]) [%*] | reduction of the negative symptoms (on the SANS scale) (Schizophrenia Patients [1]) [%] | reduction of the positive symptoms (on the PANSS-positive subscale) (Schizophrenia Patients [1]) [%] | CGI, score after treatment (Schizophrenia Patients [1]) | CGI, baseline score (Schizophrenia Patients [1]) | side effects, UKU scale (Schizophrenia Patients [2]) | significant side effects after treatment of schizophrenia patients (Schizophrenia Patients [2]) | tardive dyskinesia, extrapyramidal and akathesia symptoms (Schizophrenia Patients [2])
1 | 0.5 | 0.4 | 3.1-->3.1 | 0.1 | 0.6 | 3.1-->3.1 | C[C@@H](N)C(=O)O [D-alanine] | improved cognition | +0.5* category | −12 | −11 | −11 | 11 | 12 | 2.8 | 3.9 | no side effects were noted | no significant side effects were detected | no newly emergent tardive dyskinesia or worsening of extrapyramidal or akathesia symptoms
2 | 0.3-->0.3 | 0.4 | 1.4 | 0.3-->0.3 | 0.8 | 1.7 | N[C@H](CO)C(=O)O [D-serine] | improved cognition | +0.9 category | −21 | −12 | −17 | 21 | 17 | 2.6 | 4.8 | no side effects were noted | no significant side effects were detected | no newly emergent tardive dyskinesia or worsening of extrapyramidal or akathesia symptoms
3 | 0.4 | 0.5 | 2.1-->2.1 | 0.3 | 0.6 | 2.1-->2.1 | CNCC(=O)O [N-methylglycine] | improved cognition | +0.7* category | −20 | −12 | −15 | 20 | 15 | 2.7 | 4.2 | no side effects were noted | no significant side effects were detected | no newly emergent tardive dyskinesia or worsening of extrapyramidal or akathesia symptoms
